Data on three compounds can be found in patent US20220288051A1, “METHODS FOR TREATING CANCER USING SERIAL ADMINISTRATION OF E3 UBIQUITIN LIGASE DEGRADERS” (Dana-Farber Cancer Institute, Inc., priority 2019, published 2022).

One test relates to MM.1S cells. Nature of the test: CTG viability of CRISPR-edited MM.1S pools tolerant to bortezomib or JQ1. The format is cell-based, human. The following applies: after genome-scale gene editing and treatment with JQ1 (500 nM) or bortezomib (25 nM). The procedure: Cell viability and growth of human MM cell lines were assessed using CellTitre-Glo (CTG) assay (Promega, Madison, Wis.) per kit instructions, or CS-BLI as described (Delmore et al., 2011). Briefly, cells were seeded (5×10^3 cells/well) into 96- or 384-well opaque plates, in supplemented media (40 or 50 uL) and incubated for 24 h prior to addition of drug. For co-culture experiments, HS27A cells were pre-seeded (5×10^3 cells/well) into each well in media prior (24 h) to the addition of MM cells. At each time point (24 h, 48 h, and/or 72 h) CTG reagent (10% volume) was added to each well, and plates were read using a microplate reader (BioTek Synergy 2, BioTek, Winooski, Va.).
(§1) iii. […] Following treatments, all cells were serially cultured without drug and allowed to regrow for as long as required to enable reseeding (60×10^6 cells per flask, 100 mL) and retreatment with individual drugs while maintaining ˜1000× coverage throughout. Concomitant with retreatment, remaining cells were frozen (−80° C.; 20% FBS/DMSO) for later analysis or assessed for drug resistance/sensitivity using CTG assays. Between treatments, and in order to maintain the health of cultures, dead cells were periodically removed using Ficoll centrifugation (1,500 rpm for 10-20 min). For all CRISPR drug treatment experiments, aliquots of MM.1S-Cas9+ cells transduced with the GeCKO(Sanjana et al., 2014; Shalem et al., 2014) or Brunello (Doench et al., 2016) sgRNA libraries were frozen immediately prior to experimentation to determine the baseline distribution of sgRNAs in the cell population.

The next test deals with MM. The following applies: cited from earlier work.
The test system of a further test is c-Myc. Nature of the test: Immunoblotting of degronimid-treated MM.1S cells: c-Myc. The format is cell-based, human. The following applies: 0.01-1 μM, 4 h. The method, then: MM.1S cells were seeded in 6-well plates at 3×10^6 cells/well (˜24 h prior to addition of drug). […] Cell pellets were thawed on ice, lysed using RIPA buffer (ThermoFisher) with protease/phosphatase inhibitor cocktail (Cell Signal Technology, Danvers, Mass.) by incubating on ice 30 min. The lysates were clarified by spinning at 10,000 g for 10 min at 4° C. and the concentration of the lysate was determined using BCA protocol (ThermoFisher). Samples were prepared for Western blot using LDS sample buffer (NuPage, Invitrogen, Carlsbad, Calif., USA) with sample reducing agent (NuPage, Invitrogen) and heated to 95° C. for 5 min. Samples were loaded (20 ug/sample) into Tris-acetate or Bis-Tris gels (NuPage, Invitrogen) and run as per kit instructions using appropriate running buffers. Gels were transferred as described (Matthews et al., 2015) onto PVDF membrane using SDS-based transfer buffer (NuPage, Invitrogen). Membranes were blocked (5% skim milk; or 5% bovine serum albumin in TBS-T) for at least 30 min then probed with primary antibodies overnight (4° C.). […] Each protein of interest (BRD2, BRD3, BRD4, c-myc and CDK9) was assessed in a separate gel and corresponding membrane (which was simultaneously incubated with antibodies for both the target protein of interest and GAPDH, to provide a loading control within the same blot). […]
(In general: A western blot detects proteins with antibodies after separation by electrophoresis.)

Another test relates to pools of MM cells. Briefly: Sequential exposure to CRBN- and VHL-based degraders, CTG. The format is cell-based, human. The following applies: compared to treatment-naïve cells. The source says: We addressed this question using pools of MM cells derived from several of our genome-scale CRISPR-based screens.
For a further test, the system named is MM.1S-Cas9+ cells. Briefly: Genome-scale CRISPR/Cas9 gene editing (LOF) resistance screens. In kind it is cell-based, human. The following applies: long-term treatment; NGS of sgRNAs. The procedure: MM.1S cells transduced with lentiviral construct for SpCas9 were kindly provided from Quinlan Sievers (Ebert Lab, BWH/DFCI). MM.1S cells were also transduced with lentiviral construct for dCas9-VP64 (purchased from Addgene).
ii. Lentiviral transductions with sgRNA libraries: For the screen with the GECKOv2 sgRNA library, tumor cell transductions were performed in batches of 8×10^7 cells per sub-library for each replicate. Cells were incubated for 16 hrs in cell medium containing polybrene (2 μg/mL; Santa Cruz Biotechnology), 10 mM HEPES (pH 7.4) (Sigma-Aldrich) and viral prep (4 mL) diluted to achieve an MOI of 0.4. After the end of the incubation with the viral preps, cells were washed and incubated for an additional day. Transduced cells were cultured at an initial density of 1×10^6 cells/mL and were treated with puromycin (1 μg/mL) for up to 14 days immediately after transduction. After puromycin selection, MM.1S-Cas9^+ cells transduced with each GeCKOv2 sublibrary were plated at 60×10^6 cells per flask (T175, 100 mL) to enable coverage of ˜1000× and were sub-cultured at four to five-day intervals to prevent confluence. At each passage, cells were harvested, washed with PBS (Corning, N.Y.), pelleted (5000 rpm, 5 min, 4° C.) and frozen as cell pellets (−80° C.) for next generation sequencing, and also replated at 60×10^6 cells to maintain 1000× coverage.
For the genome-scale screens with the Brunello sgRNA library, tumor cell transductions were performed in batches of 5×10^7 cells per library for six replicates. Cells were incubated (18 h) in cell medium containing polybrene (5 μg/mL; Santa Cruz Biotechnology), 10 mM HEPES (pH 7.4) (Sigma-Aldrich) and viral prep (30 mL) diluted 1:1. Transduced cells were cultured at an initial density of 1×10^6 cells/mL and were treated with puromycin (1 μg/mL) for up to 5 days additional two days from transduction. After stable transduction, pooled MM.1S cells were plated at 40×10^6 cells per flask (T175, 100 mL) to enable coverage of 500× and were sub-cultured at three- to four day intervals to prevent confluence. At each passage, cells were harvested, washed with PBS (Corning), pelleted (5000 rpm, 5 min, 4° C.) and frozen as cell pellets (−80° C.) for next generation sequencing, and also replated at 40×10^6 cells (˜500× coverage).
as §1
For “long-term” treatment screens with Thal-SNS-032-, ARV-771- and MZ-1-resistant cells, we continuously treated MM.1S-Cas9+ cells (40×10^6, —500× coverage) transduced with the Brunello sgRNA library (4 weeks post-puromycin selection) with either each compound's (IC20) or vehicle control. Cells were serially passaged every 3-4 days to prevent confluence, each time replating at ˜500× coverage (100 mL) at the same time replenishing each compound or vehicle. Drug treatments were paused if cell numbers fell below 10×10^6 per flask, allowing cells to recover and regrow, and treatments were resumed at a lower concentration when cell numbers reached 40×10^6. At each passage, cells were assayed for drug sensitivity/resistance using CTG. […]

The test system of a further test is MM.1S Cas9+ cells. Nature of the test: Dose-response assay of cells with individual sgRNA knock-outs, CTG. The following applies: compared to parental MM.1S cells. The format is cell-based, human. The procedure:
Non-targeting control sgRNAs and COPS7B sgRNAs were from GeCKOv2. Four sgRNAs were generated per each gene, except from COPS7B, for which 6 sgRNAs were available (Table S2). All sgRNAs were synthesized by CustomArray Inc (Bothell, Wash.). Cloning was performed according to the protocol published by Zhang et al. (media.addgene.org/cms/filer_public/4f/ab/4fabc269-56e2-4ba5-92bd-09dc89c1e862/zhang_lenticrisprv2_and_lentiguide_oligo_cloning_protocol_1.pdf) using a pHKO9 vector. Briefly, to clone the sgRNA guide sequence, plasmids were digested with BsmBI (New England Biolabs, Ipswich, Mass.) at 55° C. for 1 hour. Oligonucleotides for each sgRNA guide sequence were annealed and phosphorylated using T4 Ligation Buffer and T4 polynucleotide kinase (New England Biolabs) at 37° C. for 30 minutes and then annealed by heating to 95° C. for 5 minutes and cooling to 25° C. at 1.5° C./minute. Using T4 ligation buffer and T4 ligase (New England Biolabs), annealed oligos were ligated into gel purified vectors (Qiagen) at 65° C. for 10 minutes. 2.5 ug of the ligation product were transformed in 30 uL E. coli electrocompetent cells (Lucigen E.cloni 10 G ELITE PLUS, Invitrogen). Subsequently, 500 uL of transformed cells were plated on LB Agar-AmpR (ThermoFisher Scientific) and incubated overnight at 37° C. Three colonies per plate were then picked and inoculated in a mini-prep culture (Qiagen). The product was then digested with BsmBI and XhoI (New England Biolabs) at 37° C. for 1 h and compared to the uncut control on 1% agarose gel. One out of three colonies (10 uL) was then precultured in 3 mL LB Broth-AmpR and shaken at 37° C. for 6 h. Afterwards it was transferred to a 250 mL LB Broth-AmpR flask and incubated overnight at 37° C. Each culture was then inoculated into a maxiprep culture (Qiagen).
Also, CRBN, VHL, TCEBJ, TCEB2, UBE2R2 and FBXW2 sgRNA are selected from Brunello library and cloned using pLVX-hyg-sgRNA1 Vector system (Takara Bio USA, CA) according to the manufacturer's manual. b(takarabio.com/assets/documents/User %20Manual/Lenti-X_CRISPR-Cas9_System_User_Manual_121316.pdf)
ii. Lentiviral transductions with constructs for individual sgRNAs: 500×10^3 to 1×10^6 MM.1S Cas9 cells were plated in 50 uL of complete RPMI1640 medium per well in a 24-well plate, and additional 100 uL of complete RPMI1640 medium were added to cover the well completely. Cells were incubated in cell medium containing polybrene (5 to 8 μg/mL; Santa Cruz Biotechnology), and viral prep. 24 hours after addition of viral preps, media were changed and, after another 48 h, puromycin selection (1 to 2 ug/ml per well) was started. After 7 days of puromycin selection, transduced MM.1S Cas9+ cells were collected and expanded in T75 flasks.
iii. […] In the case of Thal-SNS-032 or ARV771, cells are plated 384-well plate and treated each concentration described at figure and viability assays were performed at 72 hrs.

Turning to `CC(C)C[C@H](NC(=O)[C@H](Cc1ccccc1)NC(=O)c1cnccn1)B(O)O` [bortezomib], in the test on MM.1S cells, the “responsiveness of drug-exposed pools to the same agent” value is “decreased responsiveness”.

For `Cc1sc2c(c1C)C(c1ccc(Cl)cc1)=N[C@@H](CC(=O)OC(C)(C)C)c1nnc(C)n1-2` [JQ1], the induction of apoptosis result in the test on MM (most cell types tested) is reported as “does not induce apoptosis in most cell types tested”. The anti-tumor activity entry with MM (preclinical in vitro and in vivo models of MM) is “has anti-tumor activity”. In addition, in the test with c-Myc, the c-Myc protein levels entry is on record as “less pronounced depletion of c-Myc”. Moreover, in the test on MM.1S cells, the “responsiveness of drug-exposed pools to the same agent” value is listed as “decreased responsiveness”.

As for `Cc1ncsc1-c1ccc(CNC(=O)[C@@H]2C[C@@H](O)CN2C(=O)[C@@H](NC(=O)COCCOCCOCCNC(=O)C[C@@H]2N=C(c3ccc(Cl)cc3)c3c(sc(C)c3C)-n3c(C)nnc32)C(C)(C)C)cc1` [MZ-1], the “shift of dose response curve in pools previously exposed to CRBN-based degraders” value in the test on pools of MM cells is given as “limited, if any, shift”. In addition, the “sgRNA enrichment in resistant cells, long-term screen” value with MM.1S-Cas9+ cells was “enrichment of sgRNAs for CUL2, VHL itself”. For the same compound, the “response of cells with sgRNAs against COPS7B or COPS8” value in the test on MM.1S Cas9+ cells was “decreased response”.
